Data taken from the NIST ThermoML archive (doi:10.1021/acs.jced.5b00860).

Details: for surface tension liquid-gas: Maximal bubble pressure; for electrical conductivity / viscosity / mass density: 101.33 kPa, Liquid; for electrical conductivity: Alternating current cell with electrodes; for viscosity: Concentric cylinders viscometry; for mass density: Vibrating tube method

CCCCCn1cc[n+](C)c1.O=C([O-])O [3-methyl-1-pentylimidazolium hydrogen carbonate]
Details	electrical conductivity [S/m]	mass density [kg/m3]	surface tension liquid-gas [mN/m]	viscosity [mPa·s]
288.15 K	0.143	1148.91	31.9	179.6
293.15 K	0.193	1145.21	31.4	138.9
298.15 K	0.248	1141.79	30.9	108.6
303.15 K	0.305	1138.28	30.4	85.09
308.15 K	0.367	1134.77	29.9	66.77
313.15 K	0.428	1131.33	29.4	53.12
318.15 K	0.489	1127.75	29	42.53
323.15 K	0.553	1124.28	28.5	33.29
328.15 K	0.612	1120.73	28	26.92
333.15 K	0.671	1117.27	27.5	21.42
338.15 K	0.733	1113.75	26.9	17.65
343.15 K	0.794	1110.3	26.5	14.71

CCCCC[n+]1ccn(C)c1.O=P([O-])(O)O [1-methyl-3-pentylimidazolium dihydrogen phosphate]
Details	electrical conductivity [S/m]	mass density [kg/m3]	surface tension liquid-gas [mN/m]	viscosity [mPa·s]
288.15 K	0.164	1148.62	41.8	327.8
293.15 K	0.201	1145.42	41.5	259.1
298.15 K	0.243	1142.29	41.2	205
303.15 K	0.29	1139.09	40.9	162.6
308.15 K	0.341	1135.81	40.6	130
313.15 K	0.398	1132.55	40.3	103.3
318.15 K	0.457	1129.43	40	84.04
323.15 K	0.523	1126.27	39.7	68.45
328.15 K	0.588	1122.94	39.3	56.55
333.15 K	0.665	1119.93	39	46.91
338.15 K	0.744	1116.63	38.7	38.55
343.15 K	0.825	1113.49	38.4	31.43
